The values that follow come from ChEMBL document CHEMBL1155134, “Structural basis for the potent calpain inhibitory activity of peptidyl alpha-ketoacids” (J Med Chem, 2008).

Residues, ends and D or L forms follow the SMILES beside them. *: point of attachment. Cbz = O=C(OCc1ccccc1)*

The target in this assay is T1, Calpain-1 catalytic subunit (Sus scrofa, UniProt P35750).
T1 sequence (P35750 whole entry): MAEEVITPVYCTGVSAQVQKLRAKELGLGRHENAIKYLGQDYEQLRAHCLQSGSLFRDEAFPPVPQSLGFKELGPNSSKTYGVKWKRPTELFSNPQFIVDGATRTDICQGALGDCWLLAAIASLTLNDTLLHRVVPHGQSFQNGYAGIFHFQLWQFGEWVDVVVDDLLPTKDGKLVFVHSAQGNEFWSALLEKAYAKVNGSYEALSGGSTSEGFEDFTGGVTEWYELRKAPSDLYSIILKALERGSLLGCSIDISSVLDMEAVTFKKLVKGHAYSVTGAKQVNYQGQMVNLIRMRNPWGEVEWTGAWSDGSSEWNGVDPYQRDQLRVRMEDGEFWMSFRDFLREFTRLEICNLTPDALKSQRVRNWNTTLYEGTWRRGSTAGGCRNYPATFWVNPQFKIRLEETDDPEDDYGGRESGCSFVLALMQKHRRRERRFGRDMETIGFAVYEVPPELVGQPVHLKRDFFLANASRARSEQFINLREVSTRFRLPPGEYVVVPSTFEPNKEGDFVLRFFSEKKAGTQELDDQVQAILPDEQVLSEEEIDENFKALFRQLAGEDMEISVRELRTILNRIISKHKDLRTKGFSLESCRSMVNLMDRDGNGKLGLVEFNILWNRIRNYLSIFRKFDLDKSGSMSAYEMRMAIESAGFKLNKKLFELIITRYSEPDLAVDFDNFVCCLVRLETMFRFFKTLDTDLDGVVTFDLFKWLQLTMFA
The experiment in a line: Inhibition of pig erythrocyte mu-calpain by fluorometric assay.
For `CC(C)[C@H](NC(=O)OCc1ccccc1)C(=O)N[C@H](C=O)Cc1ccccc1` (Cbz-Val-Phe-aldehyde), the Ki – broadly, a measure of affinity in units of concentration, obtained from inhibition or displacement – came out at 10 nM.

`CC(C)C[C@H](NC(=O)CCC1CCCCC1)C(=O)NC(Cc1ccccc1)C(=O)C(=O)O` (mixture of isomers) showed an inhibition constant Ki of 50 nM.

As for `CC(C)C[C@H](NC(=O)CC1c2ccccc2-c2ccccc21)C(=O)NC(Cc1ccccc1)C(=O)C(=O)O` (mixture of isomers), the affinity, expressed as Ki, was 8 nM.

`COC(=O)C(=O)C(Cc1ccccc1)NC(=O)[C@H](CC(C)C)NC(=O)CC12CC3CC(CC(C3)C1)C2` (mixture of isomers) yielded an inhibition constant Ki of 450 nM.

`COC(=O)C(=O)C(Cc1ccccc1)NC(=O)[C@H](CC(C)C)NC(=O)C(c1ccccc1)c1ccccc1` (mixture of isomers) gave a Ki of 944 nM.

Regarding `CC(C)C[C@H](NC(=O)C(c1ccccc1)c1ccccc1)C(=O)NC(Cc1ccccc1)C(=O)C(=O)O` (mixture of isomers), the Ki came out at 108 nM.

With `CC(C)C[C@H](NC(=O)CC(c1ccccc1)c1ccccc1)C(=O)NC(Cc1ccccc1)C(=O)C(=O)O` (mixture of isomers), the Ki is 63 nM.

In turn, `COC(=O)C(=O)C(Cc1ccccc1)NC(=O)[C@H](CC(C)C)NC(=O)CC1c2ccccc2-c2ccccc21` (mixture of isomers) gave a Ki of 1200 nM.

With `CC(C)C[C@H](NC(=O)CC12CC3CC(CC(C3)C1)C2)C(=O)NC(Cc1ccccc1)C(=O)C(=O)O` (mixture of isomers), the Ki turned out to be 41 nM.

Molecule `COC(=O)C(=O)C(Cc1ccccc1)NC(=O)[C@H](CC(C)C)NC(=O)CCC1CCCCC1` (mixture of isomers) showed a Ki of 1050 nM.
